Biological target: human SOS1 (SOS1) with human K-RasG12C (Homo sapiens (Human), UniProt Q07889)
Assay: hK-RasG12C interaction assay with hSOS1 (HTRF)
Assay type: binding
Conditions: GST-hK-RasG12C and His-hSOS1, 60 min incubation at 20° C, mean, read-out: K-RasG12C - SOS interaction assay IC50 - [mol/l] (mean)

Sequence of human SOS1 (SOS1) with human K-RasG12C (Q07889 564-1049): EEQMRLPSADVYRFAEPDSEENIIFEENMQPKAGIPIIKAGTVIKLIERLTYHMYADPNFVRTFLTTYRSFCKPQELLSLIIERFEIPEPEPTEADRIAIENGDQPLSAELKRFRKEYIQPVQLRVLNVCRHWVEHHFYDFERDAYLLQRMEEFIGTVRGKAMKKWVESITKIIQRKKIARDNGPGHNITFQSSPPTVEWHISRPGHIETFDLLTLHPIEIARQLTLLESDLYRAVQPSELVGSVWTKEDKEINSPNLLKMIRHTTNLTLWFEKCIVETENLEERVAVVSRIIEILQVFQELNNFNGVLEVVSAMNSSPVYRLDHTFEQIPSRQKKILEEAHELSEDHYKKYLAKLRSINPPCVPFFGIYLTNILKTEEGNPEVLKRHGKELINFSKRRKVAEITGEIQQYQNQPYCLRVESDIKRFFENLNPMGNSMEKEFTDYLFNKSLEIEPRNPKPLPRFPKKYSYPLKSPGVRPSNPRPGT

- IC50: 5.78 nM
Compound: CC(=O)N1CC2(C1)CN(c1cc3c(N[C@H](C)c4cccc(C(F)(F)F)c4C)nc(C)nc3nc1C(F)(F)F)C2 [Example 71, 1-{6-[2-methyl-4-({(1R)-1-[2-methyl-3-(trifluoromethyl)phenyl]ethyl}amino)-7-(trifluoromethyl)pyrido[2,3-d]pyrimidin-6-yl]-2,6-diazaspiro[3.3]heptan-2-yl}ethan-1-one]
